Assay results from PMC6081452, “Downstream Products are Potent Inhibitors of the Heparan Sulfate 2-O-Sulfotransferase” (Scientific Reports, 2018).

Columns and labels:
[1] = target: T1, non-glyc-HS2ST (non-glycosylated chicken HS2ST), WT (Gallus gallus, UniProt Q76KB1); test: BLI equilibrium binding, non-glyc-HS2ST WT; conditions: BLI saturation binding curves, biotin-PEG4-linked hexasaccharide on sensor, n = 3, ± standard error of fit; — = response too weak to fit
T1 construct: made in house; host or cells: E. coli Origami B (DE3)
T1 sequence (Q76KB1 69-356 limits assumed): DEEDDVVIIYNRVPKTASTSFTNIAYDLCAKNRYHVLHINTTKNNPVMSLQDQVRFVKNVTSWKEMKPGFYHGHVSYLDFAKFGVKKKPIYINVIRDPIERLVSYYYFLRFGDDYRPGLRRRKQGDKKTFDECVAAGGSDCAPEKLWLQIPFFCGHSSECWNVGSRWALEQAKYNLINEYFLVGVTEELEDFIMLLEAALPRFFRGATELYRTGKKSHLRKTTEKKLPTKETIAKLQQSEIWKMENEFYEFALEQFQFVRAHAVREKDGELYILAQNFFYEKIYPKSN
Description: HS-protein binding studies often utilize biologically-derived oligosaccharides of heterogeneous length and sulfation[34],[35]; however, the synthesis of oligosaccharides with defined length and specific sulfation patterns has recently become possible. We employed biolayer interferometry (BLI) to determine equilibrium surface binding constants (KD) for HS2ST with synthetic HS hexasaccharides (Fig. 1 and Supplementary Table 1). The HS compounds were attached to the BLI biosensor surface to conserve sample and to ensure a significant signal upon protein binding. The HS compounds contained a biotinylated PEG4 linker at the reducing terminus, enhancing the likelihood of a consistent presentation of the linear glycan on the sensor surface, in contrast to immobilizations via intra-chain modifications.
Binding constants were collected for two isoforms of the enzyme; a glycosylated human variant (glyc-HS2ST) expressed in mammalian cell lines, and a highly homologous (96% identity) non-glycosylated chicken isoform expressed in E. coli (non-glyc-HS2ST). […] Thus, the enhanced ligand affinity seen in HS2ST was unexpected and may relate to the specific position of the glycosylation site (N108)[41].
The chicken HS2ST-Maltose Binding Protein (MBP) fusion protein was expressed and purified according to previous studies. The fusion protein was transformed into E. coli Origami B (DE3) cells, cultured at 37 °C until OD600 reached 0.5, then induced with isopropyl-β-D-thiogalactopyranoside and allowed to grow overnight at 20 °C. Cells were sonicated, followed by a two-step purification procedure. Whole-cell supernatant was passed through an amylose column with Tris buffer (25 mM Tris, 500 mM NaCl, pH 7.5). An elution buffer consisted of Tris Buffer with 40 mM Maltose. The amylose column eluent was concentrated and loaded on a Superdex 200 Increase 10/300 GL with PBS buffer (10 mM sodium phosphate, 150 mM NaCl, pH 7.8) to separate trimeric protein from aggregate and independent MBP (Supplementary Fig. 4). All reported mutations formed homotrimeric complexes according to the SEC profiles, including the negative control (NC = R189A/R80E/R184E). Protein concentration was assessed via UV at 280 nm (MW of trimer ~210 KDa, extinction coefficient ~119,000 M^−1 cm^−1 according to ExPASy ProtParam webtool[56]). The trimeric protein preparation was adjusted to 5% glycerol and stored at −20 °C until use. Additional non-glyc-HS2ST constructs were created with the Q5® Mutagenesis kit (New England Biolabs Inc.; cat. # E0554S) and sequenced at the Georgia Genomics Facility at the University of Georgia.
The Octet® RED96 system (FortéBio Inc.) was employed to detect the affinity of the enzymes for specific HS targets. Due to the small size of the glycan and the deep HS2ST binding cavity, the glycan and protein were treated as ligand and analyte, respectively. Varyingly sulfated HS fragments conjugated to biotin linkers were purchased from Glycan Therapeutics Inc. with purities greater than 93% according to HPLC (sequences located in Supplementary Table 1). The glycans were immobilized onto streptavidin (SA) labeled biosensors (FortéBio; cat. #18–5019) at 0.5 µg/mL. Experiments were performed at 25 °C in PBS Buffer (10 mM sodium phosphate, 150 mM NaCl, pH 7.8) with a final concentration of 1X Pall Kinetics buffer (FortéBio Inc; cat. #18–1092). Fresh biosensors and protein samples were used for each measurement (no regeneration step). […]

non-glyc-HS2ST WT = target: T2, non-glyc-HS2ST WT (Gallus gallus, UniProt Q76KB1); test: Inhibition assay of the reaction between HS2ST and completely de-O-sulfated N-sulfated heparin ([35S]PAPS); type: biochemical, chicken; conditions: for IC50: p-nitrophenol-terminated hexasaccharides, substrate CDNS heparin 1 µg, [35S]PAPS, 37 °C, 1 h, n = 2 or 3
T2 construct: made in house; host or cells: E. coli Origami B (DE3)
T2 sequence (Q76KB1 69-356 limits assumed): T1 sequence (Q76KB1 69-356 limits assumed)
Experimental: Inhibition assays were thus performed with non-glyc-HS2ST and all compounds except for 1, the enzymatic substrate. […] Compound 5 appeared to inhibit at least as well as the product of the reaction (2); however, the IC50 was not reached even at the maximum substrate concentration (1 mM) for either 2 or 5. The addition of a single sulfate moiety enhanced the potency of the glycan as an inhibitor by ~10-fold (compare 3 and 4). The presence of both 2- and 3-O-sulfate moieties in the hexasaccharide (4) enhanced its inhibitory potential by approximately 100-fold relative to 5. These in vitro inhibition assays indicate that downstream products of the HS biosynthetic pathway could interfere with HS2ST catalysis in vivo.
The same glycan sequences were synthesized[62] for the inhibition assay as were used for the binding studies (Supplementary Table 1), except these terminated in p-nitrophenol rather than the PEG4-Biotin linker. The reaction mixture contained Tris pH 7.5 50 mM, 0.3 µg non-glyc-HS2ST WT, 0.08 nmol ^35S-labeled 3′-phosphoadenosine 5′-phosphosulfate ([^35S] PAPS) (3 × 10^4 cpm), completely de-O-sulfated N-sulfated heparin (CDNS heparin) 1 µg, and either compound 2, 3, 4 (0, 1, 2, 4, 8, and 16 µg) or 5 (2, 20, 60, and 160 µg) in a total volume of 0.1 ml. After incubation at 37 °C for 1 h, the reaction was quenched by adding 1 mL of 0.01% Triton X-100 buffer at pH 5.0 containing 150 mM NaCl, 50 mM NaOAc, 3 M urea and 1 mM ethylenediaminetetraacetic acid (EDTA). The samples were loaded on a small DEAE column (200 µl in size). The column was then washed five times with the same buffer, each time 1 ml. The column was further washed five times with 0.25 M NaCl in 0.001% Triton X-100 buffer each time 1 ml. The column was eluted with 1 ml of 1 M NaCl in 0.001% Triton X-100 buffer. The ^35S cpm of the eluted samples were tested the by a scintillation counter.

“GlcNS-GlcA-GlcNS-IdoA2S-GlcNS-GlcA~ [Compound 2]” was tested, and the Kd [1] was > 0.5 µM and the IC50 (non-glyc-HS2ST WT) was > 1000 µM.

In the case of “GlcNS6S-GlcA-GlcNS6S-GlcA-GlcNS6S-GlcA~ [Compound 5]”, the Kd [1] is reported as 0.072 ± 0.008 µM and the IC50 (non-glyc-HS2ST WT) is reported as > 1000 µM.

Work on “GlcNS6S-GlcA-GlcNS6S-IdoA2S-GlcNS6S-GlcA~ [Compound 3]” yielded a Kd [1] of 0.042 ± 0.005 µM.

In the case of “GlcNS6S-GlcA-GlcNS3S6S-IdoA2S-GlcNS6S-GlcA~ [Compound 4]”, the Kd [1] is reported as 0.013 ± 0.003 µM, the “Enhancement of inhibitory potential relative to 5” value (non-glyc-HS2ST WT; 4 relative to 5) is reported as “approximately 100 fold” and the “Enhancement of inhibitory potency by addition of a single sulfate moiety (compare 3 and 4)” value (non-glyc-HS2ST WT; 4 versus 3) is reported as ~ 10 fold.
